Each structure is given as a SMILES string.

By IC50 is commonly meant the concentration that gives 50% inhibition.

The assay deals with phospho-PLCγ1 in Jurkat cells. As to the kind of experiment: ITK target modulation PLC-γ assay (phospho-PLCγ1, αCD3-stimulated Jurkat cells). The assay is classed as cell-based, human. As to conditions: Homo sapiens, 1 hour compound incubation, αCD3 Dynabeads stimulation 8 minutes, MSD phospho-PLCγ1, read-out: PLC-γ Inhibition IC50. Here is the method:
Jurkat cells, an immortalized human T-lymphocyte cell line, were maintained in RPMI media, 10% FBS, 1% pen/strep/glutamine (growth media). Cells were plated in growth media plus 50 μM β-mercaptoethanol at 400,000 cells per well of a 96 well plate.
Compounds were serially diluted into DMSO, and then into media to concentrations 10× that of the final assay concentration. Compounds were then added to the cells with the final assay DMSO concentration being 0.1%. Cells were incubated for 1 hour at 37° C.
Following compound incubation, αCD3 Dynabeads were added at 1 bead/cell to each assay well and incubated at 37° C. for 7 minutes. Unstimulated control wells received media only. The plate was then placed on a 96-well magnetic plate for an additional 60 seconds (total assay stimulation time equals 8 minutes). The plate was then dumped and gently patted dry on a paper towel. 50 μl of complete Meso Scale Discovery (MSD) Lysis buffer was then added to each well. Samples were assayed for phospho-PLCγ1 using Meso Scale Discovery technology.
The assay stimulation time has been optimized for detection of Itk kinase-mediated phosphorylation of PLCγ1. The timing and detection reagents for this assay could be adjusted to capture phosphorylation events upstream (e.g., phospho-ZAP70) or downstream of the Itk/PLCγ1 node, provided the appropriate phospho-specific antibodies are available for building of an MSD assay.
For `C=C(C)C(=O)Nc1cc(-c2cnc3[nH]cc(-c4ccnc(OC)c4)c3c2)cc(-c2cnn(C)c2)n1` [Example 70, N-(4-(3-(2-methoxypyridin-4-yl)-1H-pyrrolo[2,3-b]pyridin-5-yl)-6-(1-methyl-1H-pyrazol-4-yl)pyridin-2-yl)methacryl-amide], the IC50 is above 5000 nM.

Regarding `C=CC(=O)Nc1cncc(-c2cnc3[nH]cc(-c4cn(C)c(=O)c5[nH]ccc45)c3c2)c1` [Example 73, N-(5-(3-(6-methyl-7-oxo-6,7-dihydro-1H-pyrrolo[2,3-c]pyridin-4-yl)-1H-pyrrolo[2,3-b]pyridin-5-yl)pyridin-3-yl)acrylamide], the IC50 is above 5000 nM.

On to `C=CC(=O)Nc1cc(-c2cnc3[nH]cc(-c4ccnc(OC)c4)c3c2)cc(-c2cnn(C)c2)c1` [Example 80, N-(3-(3-(2-methoxypyridin-4-yl)-1H-pyrrolo[2,3-b]pyridin-5-yl)-5-(1-methyl-1H-pyrazol-4-yl)phenyl)acryl-amide], for which the IC50 is below 1000 nM. `C=CC(=O)Nc1cccc(-c2cnc3[nH]cc(-c4cncc(Cl)c4)c3c2)c1` [Example 43, N-(3-(3-(5-chloropyridin-3-yl)-1H-pyrrolo[2,3-b]pyridin-5-yl)phenyl)acryl-amide]: the IC50 is 1000 to 5000 nM. `C=CC(=O)Nc1cccc(-c2cnc3[nH]cc(-c4cccc5occc45)c3c2)c1` [Example 82, N-(3-(3-(benzofuran-4-yl)-1H-pyrrolo[2,3-b]pyridin-5-yl)phenyl)acryl-amide]: the concentration for half-maximal inhibition (IC50) is above 5000 nM. For the compound `C=CC(=O)Nc1cccc(-c2cnc3[nH]cc(-c4cc(C)cc(OC)n4)c3c2)c1` [Example 52, N-(3-(3-(6-methoxy-4-methylpyridin-2-yl)-1H-pyrrolo[2,3-b]pyridin-5-yl)phenyl)acryl-amide], the IC50 is above 5000 nM. In the case of `C=CC(=O)Nc1cccc(-c2cnc3[nH]cc(-c4cccc5ncccc45)c3c2)c1` [Example 54, N-(3-(3-(quinolin-5-yl)-1H-pyrrolo[2,3-b]pyridin-5-yl)phenyl)acryl-amide], the IC50 is 1000 to 5000 nM.

In the case of `C=CC(=O)Nc1cccc(-c2cnc3[nH]cc(-c4cc(OC)nc(C(F)(F)F)c4)c3c2)c1` [Example 31, N-(3-(3-(2-methoxy-6-(trifluoromethyl)pyridin-4-yl)-1H-pyrrolo[2,3-b]pyridin-5-yl)phenyl)acryl-amide], the IC50 was above 5000 nM. The figure for `C=CC(=O)Nc1cc(-c2cnc3[nH]cc(-c4ccncc4)c3c2)cc(C(F)(F)F)c1` [Example 20, N-(3-(3-(pyridin-4-yl)-1H-pyrrolo[2,3-b]pyridin-5-yl)-5-(trifluoromethyl)phenyl)acryl-amide] is below 1000 nM. In the case of `C=CC(=O)Nc1cccc(-c2cnc3[nH]cc(-c4cc(NC)ncn4)c3c2)c1` [Example 56, N-(3-(3-(6-(methylamino)pyrimidin-4-yl)-1H-pyrrolo[2,3-b]pyridin-5-yl)phenyl)acryl-amide], the IC50 lay in the range of 1000 to 5000 nM. On to `C=CC(=O)Nc1cc(-c2cnc3[nH]cc(-c4cccnc4)c3c2)cc(C(F)(F)F)c1` [Example 59, N-(3-(3-(pyridin-3-yl)-1H-pyrrolo[2,3-b]pyridin-5-yl)-5-(trifluoromethyl)phenyl)acryl-amide], for which the IC50 is below 1000 nM. The figure for `C=CC(=O)Nc1cccc(-c2cnc3[nH]cc(-c4ccnc(F)c4)c3c2)c1` [Example 25, N-(3-(3-(2-fluoropyridin-4-yl)-1H-pyrrolo[2,3-b]pyridin-5-yl)phenyl)acryl-amide] is below 1000 nM. Take `Cc1cc(-c2c[nH]c3ncc(-c4cccc(/C=C(\C#N)C(N)=O)c4)cc23)ccn1` [Example 33, (E)-2-cyano-3-(3-(3-(2-methylpyridin-4-yl)-1H-pyrrolo[2,3-b]pyridin-5-yl)phenyl)acryl-amide]: the IC50 lay in the range of 1000 to 5000 nM. For the compound `C=CC(=O)Nc1cccc(-c2cnc3[nH]cc(-c4cc(C)ncn4)c3c2)c1` [Example 44, N-(3-(3-(6-methylpyrimidin-4-yl)-1H-pyrrolo[2,3-b]pyridin-5-yl)phenyl)acryl-amide], the IC50 was 1000 to 5000 nM. With `C=CC(=O)Nc1cc(OC)cc(-c2cnc3[nH]cc(-c4ccncc4)c3c2)c1` [Example 22, N-(3-methoxy-5-(3-(pyridin-4-yl)-1H-pyrrolo[2,3-b]pyridin-5-yl)phenyl)acryl-amide], the IC50 is below 1000 nM. The same measure for `C=CC(=O)Nc1cccc(-c2cnc3[nH]cc(-c4cccc(OC)c4)c3c2)c1` [Example 51, N-(3-(3-(3-methoxyphenyl)-1H-pyrrolo[2,3-b]pyridin-5-yl)phenyl)acryl-amide]: 1000 to 5000 nM; for `COc1cc(/C=C(\C#N)C(N)=O)cc(-c2cnc3[nH]cc(-c4ccnc(OC)c4)c3c2)c1` [Example 60, (E)-2-cyano-3-(3-methoxy-5-(3-(2-methoxypyridin-4-yl)-1H-pyrrolo[2,3-b]pyridin-5-yl)phenyl)acryl-amide]: above 5000 nM. The figure for `C=CC(=O)Nc1cccc(-c2cnc3[nH]cc(-c4cc(C)nc(OC)c4)c3c2)c1` [Example 29, N-(3-(3-(2-methoxy-6-methylpyridin-4-yl)-1H-pyrrolo[2,3-b]pyridin-5-yl)phenyl)acryl-amide] is 1000 to 5000 nM; for `N#C/C(=C\c1cccc(-c2cnc3[nH]cc(-c4ccc(F)nc4)c3c2)c1)C(N)=O` [Example 63, (E)-2-cyano-3-(3-(3-(6-fluoropyridin-3-yl)-1H-pyrrolo[2,3-b]pyridin-5-yl)phenyl)acryl-amide] it is above 5000 nM; for `COC/C=C/C(=O)Nc1cccc(-c2cnc3[nH]cc(-c4ccnc(OC)c4)c3c2)c1` [Example 65, (E)-4-methoxy-N-(3-(3-(2-methoxypyridin-4-yl)-1H-pyrrolo[2,3-b]pyridin-5-yl)phenyl)but-2-enamide] it is above 5000 nM. The figure for `C=CC(=O)Nc1cccc(-c2cnc3[nH]cc(-c4ccnc5[nH]ccc45)c3c2)c1` [Example 62, N-(3-(1H,1′H-[3,4′-bipyrrolo[2,3-b]pyridin]-5-yl)phenyl)acryl-amide] is below 1000 nM. Regarding `C=CC(=O)Nc1cc(-c2cnc3[nH]cc(-c4ccnc(F)c4)c3c2)cc(C(F)(F)F)c1` [Example 61, N-(3-(3-(2-fluoropyridin-4-yl)-1H-pyrrolo[2,3-b]pyridin-5-yl)-5-(trifluoromethyl)phenyl)acryl-amide], the IC50 was below 1000 nM.

As for `C=CC(=O)Nc1cccc(-c2cnc3[nH]cc(-c4ccccc4C)c3c2)c1` [Example 42, N-(3-(3-(o-tolyl)-1H-pyrrolo[2,3-b]pyridin-5-yl)phenyl)acryl-amide], the IC50 was 1000 to 5000 nM. As for `C=CC(=O)Nc1cccc(-c2cnc3[nH]cc(-c4cccc(C#N)c4)c3c2)c1` [Example 92, N-(3-(3-(3-cyanophenyl)-1H-pyrrolo[2,3-b]pyridin-5-yl)phenyl)acryl-amide], the IC50 lay within 1000 to 5000 nM. In the case of `C=CC(=O)Nc1cccc(-c2cnc3[nH]cc(-c4cccc5ccccc45)c3c2)c1` [Example 53, N-(3-(3-(naphthalen-1-yl)-1H-pyrrolo[2,3-b]pyridin-5-yl)phenyl)acryl-amide], the concentration for half-maximal inhibition (IC50) is above 5000 nM. The figure for `C=CC(=O)Nc1cccc(-c2cnc3[nH]cc(-c4cn(CC5CC5)c(=O)c5[nH]ccc45)c3c2)c1` [Example 88, N-(3-(3-(6-(cyclopropyl-methyl)-7-oxo-6,7-dihydro-1H-pyrrolo[2,3-c]pyridin-4-yl)-1H-pyrrolo[2,3-b]pyridin-5-yl)phenyl)acryl-amide] is 1000 to 5000 nM. The same measure for `C=CC(=O)Nc1cccc(-c2cnc3[nH]cc(-c4ccnc(C)c4)c3c2)c1` [Example 26, N-(3-(3-(2-methylpyridin-4-yl)-1H-pyrrolo[2,3-b]pyridin-5-yl)phenyl)acryl-amide]: below 1000 nM.

In the case of `C=CC(=O)Nc1cccc(-c2cnc3[nH]cc(-c4ccc(=O)n(CC(C)(C)O)c4)c3c2)c1` [Example 66, N-(3-(3-(1-(2-hydroxy-2-methylpropyl)-6-oxo-1,6-dihydropyridin-3-yl)-1H-pyrrolo[2,3-b]pyridin-5-yl)phenyl)acryl-amide], the IC50 was 1000 to 5000 nM. On to `C=CC(=O)Nc1cc(-c2cnc3[nH]cc(-c4ccc(F)nc4)c3c2)cc(C(F)(F)F)c1` [Example 57, N-(3-(3-(6-fluoropyridin-3-yl)-1H-pyrrolo[2,3-b]pyridin-5-yl)-5-(trifluoromethyl)phenyl)acryl-amide], for which the IC50 is below 1000 nM. Turning to `C=CC(=O)Nc1cccc(-c2cnc3[nH]cc(-c4ccnc(NC)n4)c3c2)c1` [Example 91, N-(3-(3-(2-(methylamino)pyrimidin-4-yl)-1H-pyrrolo[2,3-b]pyridin-5-yl)phenyl)acryl-amide], the IC50 was below 1000 nM.

As to `N#C/C(=C\c1cccc(-c2cnc3[nH]cc(-c4ccncn4)c3c2)c1)C(N)=O` [Example 75, (E)-2-cyano-3-(3-(3-(pyrimidin-4-yl)-1H-pyrrolo[2,3-b]pyridin-5-yl)phenyl)acryl-amide], the IC50 is above 5000 nM. On to `C=CC(=O)NC1CN(c2cnc3[nH]cc(-c4ccnc(C#N)c4)c3c2)C1` [Example 5, N-(1-(3-(2-Cyanopyridin-4-yl)-1H-pyrrolo[2,3-b]pyridin-5-yl)azetidin-3-yl)acrylamide], for which the IC50 was above 5000 nM.

For `C=CC(=O)Nc1cccc(-c2cnc3[nH]cc(-c4ccc(F)nc4)c3c2)c1` [Example 46, N-(3-(3-(6-fluoropyridin-3-yl)-1H-pyrrolo[2,3-b]pyridin-5-yl)phenyl)acryl-amide], the IC50 is below 1000 nM.

(Values after patent US9695200B2, “Heterocyclic ITK inhibitors for treating inflammation and cancer” (Confluence Life Sciences, Inc., priority 2015, dated 2017).)
